Assay results from ChEMBL document CHEMBL3137667, “[Drug-induced liver injury; fourteenth updated edition of the bibliographic database of liver injuries and related drugs]” (Gastroenterol Clin Biol, 2004).

Key:
[1] = human
[2] = human, serum
[3] = human; remark: listed apart in the source
[4] = human; remark: listed apart in the source
[5] = Highest frequency of acute liver toxicity observed during clinical trials, expressed as a percentage. [column '% AIGUE' in source]; conditions: human
[6] = human; remark: listed apart in the source
[7] = human; remark: listed apart in the source
[8] = human, serum, 4383 h
[9] = Highest frequency of moderate liver toxicity observed during clinical trials, expressed as a percentage. [column '% BIOL' in source]; conditions: human
[10] = human; remark: listed apart in the source
[11] = human; remark: listed apart in the source
[12] = human; remark: listed apart in the source
[13] = human; remark: listed apart in the source
[14] = human, serum; remark: listed apart in the source
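Throughout, for Hepatotoxicity (association with vascular disease): count of indexed literature references reporting vascular liver injury in humans, e.g. peliosis hepatitis, hepatic veno-occlusive disease or Budd-Chiari syndrome.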
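Throughout, for Hepatotoxicity (benign tumour): value is a count of indexed literature references citing a benign tumour confirmed by histopathology.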
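Throughout, for Hepatotoxicity (choleostasis): human cholestatic liver injury, shown by histopathology or by peak ALT or AST elevation over alkaline phosphatase ratio below 2, value counts indexed literature reports.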
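Throughout, for Hepatotoxicity (chronic liver disease): chronic liver injury confirmed by histopathology or persistently raised serum aminotransferase activity beyond 6 months, value given as the count of indexed literature references.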
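Throughout, for Hepatotoxicity (cirrhosis): value is a count of indexed literature references reporting cirrhosis confirmed by histopathology.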
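Throughout, for Hepatotoxicity (cytolytic): human cytolytic liver injury, shown by histopathology or by a ratio above 5 of peak ALT or AST elevation to alkaline phosphatase elevation, value counts indexed references.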
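Throughout, for Hepatotoxicity (granulomatous hepatitis): value is a count of indexed literature references reporting granulomatous liver disease confirmed by histopathology.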
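Throughout, for Hepatotoxicity (malignant tumour): malignant tumour confirmed by histopathology, value gives the count of indexed literature references reporting it.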
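Throughout, for Hepatotoxicity (severe hepatitis): human clinical data: severe hepatitis, meaning potentially life-threatening liver failure or clinically observed cases, the value counts how many indexed literature references report it.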
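Throughout, for Hepatotoxicity (steatosis): steatosis confirmed by histopathology, value is the count of indexed references.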

CC(C)(C)C(=O)OCOC(=O)[C@@H]1N2C(=O)[C@@H](/N=C/N3CCCCCC3)[C@H]2SC1(C)C [AMDINOCILLIN PIVOXIL]
17.2%: Hepatotoxicity (moderate) [9]
1: Hepatotoxicity (moderate) [2]
0: Hepatotoxicity (choleostasis) [1] | Hepatotoxicity (malignant tumour) [3] | Hepatotoxicity (severe hepatitis) [4] | Hepatotoxicity (association with vascular disease) [6] | Hepatotoxicity (granulomatous hepatitis) [7] | Hepatotoxicity (chronic liver disease) [8] | Hepatotoxicity (cytolytic) [10] | Hepatotoxicity (steatosis) [11] | Hepatotoxicity (cirrhosis) [12] | Hepatotoxicity (benign tumour) [13] | Hepatotoxicity (acute) [14]
0%: Hepatotoxicity (acute) [5]

CC(C)NCC1CCc2cc(CO)c([N+](=O)[O-])cc2N1 (centres undefined) [OXAMNIQUINE]
0%: Hepatotoxicity (acute) [5] | Hepatotoxicity (moderate) [9]
0: Hepatotoxicity (choleostasis) [1] | Hepatotoxicity (malignant tumour) [3] | Hepatotoxicity (severe hepatitis) [4] | Hepatotoxicity (association with vascular disease) [6] | Hepatotoxicity (granulomatous hepatitis) [7] | Hepatotoxicity (chronic liver disease) [8] | Hepatotoxicity (cytolytic) [10] | Hepatotoxicity (steatosis) [11] | Hepatotoxicity (cirrhosis) [12] | Hepatotoxicity (benign tumour) [13] | Hepatotoxicity (acute) [14]
3: Hepatotoxicity (moderate) [2]

COc1ccc([C@@H]2Sc3cc(Cl)ccc3N(CCN(C)C)C(=O)[C@@H]2OC(C)=O)cc1 [CLENTIAZEM]
3.7%: Hepatotoxicity (moderate) [9]
0: Hepatotoxicity (choleostasis) [1] | Hepatotoxicity (malignant tumour) [3] | Hepatotoxicity (severe hepatitis) [4] | Hepatotoxicity (association with vascular disease) [6] | Hepatotoxicity (granulomatous hepatitis) [7] | Hepatotoxicity (chronic liver disease) [8] | Hepatotoxicity (cytolytic) [10] | Hepatotoxicity (steatosis) [11] | Hepatotoxicity (cirrhosis) [12] | Hepatotoxicity (benign tumour) [13] | Hepatotoxicity (acute) [14]
1: Hepatotoxicity (moderate) [2]
0%: Hepatotoxicity (acute) [5]

C[C@H](CSC(=O)c1ccccc1)C(=O)N1C[C@@H](Sc2ccccc2)C[C@H]1C(=O)O [ZOFENOPRIL]
0%: Hepatotoxicity (acute) [5]
0: Hepatotoxicity (choleostasis) [1] | Hepatotoxicity (malignant tumour) [3] | Hepatotoxicity (severe hepatitis) [4] | Hepatotoxicity (association with vascular disease) [6] | Hepatotoxicity (granulomatous hepatitis) [7] | Hepatotoxicity (chronic liver disease) [8] | Hepatotoxicity (cytolytic) [10] | Hepatotoxicity (steatosis) [11] | Hepatotoxicity (cirrhosis) [12] | Hepatotoxicity (benign tumour) [13] | Hepatotoxicity (acute) [14]
1: Hepatotoxicity (moderate) [2]
5.3%: Hepatotoxicity (moderate) [9]

CO[C@@H]1[C@H](OC(=O)/C=C/C=C/C=C/C=C/C(=O)O)CC[C@]2(CO2)[C@H]1[C@@]1(C)O[C@@H]1CC=C(C)C [FUMAGILLIN]
0: Hepatotoxicity (choleostasis) [1] | Hepatotoxicity (malignant tumour) [3] | Hepatotoxicity (severe hepatitis) [4] | Hepatotoxicity (association with vascular disease) [6] | Hepatotoxicity (granulomatous hepatitis) [7] | Hepatotoxicity (chronic liver disease) [8] | Hepatotoxicity (steatosis) [11] | Hepatotoxicity (cirrhosis) [12] | Hepatotoxicity (benign tumour) [13]
2: Hepatotoxicity (moderate) [2]
16.7%: Hepatotoxicity (moderate) [9]
3.4%: Hepatotoxicity (acute) [5]
1: Hepatotoxicity (cytolytic) [10] | Hepatotoxicity (acute) [14]

CN1CC[C@@H]2Nc3ccccc3[C@@H]2C1.Cl.Cl
0%: Hepatotoxicity (acute) [5] | Hepatotoxicity (moderate) [9]
1: Hepatotoxicity (choleostasis) [1] | Hepatotoxicity (acute) [14]
0: Hepatotoxicity (moderate) [2] | Hepatotoxicity (malignant tumour) [3] | Hepatotoxicity (severe hepatitis) [4] | Hepatotoxicity (association with vascular disease) [6] | Hepatotoxicity (granulomatous hepatitis) [7] | Hepatotoxicity (chronic liver disease) [8] | Hepatotoxicity (cytolytic) [10] | Hepatotoxicity (steatosis) [11] | Hepatotoxicity (cirrhosis) [12] | Hepatotoxicity (benign tumour) [13]
